Measurements: PMC9468151, “Identification of a binding site on soluble RANKL that can be targeted to inhibit soluble RANK-RANKL interactions and treat osteoporosis” (Nature Communications, 2022)
“And” between values parts separate entries of the source, which are not always exact repeats. Equal values may be shown once.

Key:
[1] = test system: sRANKL induced osteoclast differentiation; test: In vitro anti-osteoclastogenesis activity determination (TRAP staining); format: cell-based, mouse; set-up: key to inhibition of osteoclastogenesis, dose-response (fig. S2a): % inhibition = 100 − (treated−unstimulated)/(untreated−unstimulated)×100
Procedure, shortened: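 Mouse bone-marrow macrophages in 10 ng/mL M-CSF were stimulated with 100 ng/mL sRANKL plus compound at 9 concentrations, refreshed every 2 days, triplicate wells. After 5 days TRAP-stained osteoclasts were counted; inhibition normalised to untreated and unstimulated controls, IC50 by nonlinear regression.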

[2] = test system: RANKL-induced resorption pits; test: Hydroxyapatite resorption assay; format: cell-based, mouse; conditions: in words
Description: BMMs (1 × 10^5 cells/well) were cultured onto 6-well collagen-coated plates and stimulated with 100 ng/mL sRANKL and 10 ng/mL M-CSF for 3 days to generate early stage of osteoclasts began differentiation. Then early-stage osteoclasts were gently harvested using cell dissociation solution, and seeded into OsteoAssay Surface (hydroxyapatite-coated) 24-well plates. Early-stage osteoclasts were continue incubated in a medium containing sRANKL and M-CSF with or without treatment. After 48 h, wells were bleached to remove cells, followed by image acquisition for the measurement of resorbed areas using a Leica microscope. The percentage of surface resorbed was analyzed using ImageJ software.

OVX rats = test: Osteoporosis therapeutic study in OVX rats (micro-CT); format: in vivo, rat; set-up: Tb.N: unit not given beside the values
Description: Female SD rats or C57BL/6 mice were cared until they grown up to 6 months old or 10 weeks old, respectively. Then we subjected them to either bilateral ovariectomy or sham operation after anesthesia with 10% chloral hydrate (0.3 mL/100 g). Then all the rats or mice were intramuscular injected of penicillin to prevent infection in the first week of surgery. For rat experiments, after 12 weeks of operation, 3 rats from sham-operated or ovariectomized groups were random selected to determine bone mass by micro-CT imaging biopsy to verify successful produced bone loss(data unshown). Then the OVX rats were individually administrated with S3-15, S3, and S3-05 orally with (10 mg/kg/day) for another 12 weeks. For mouse experiments, after 4 weeks of surgery, the OVX mice were treated with 10 mg/kg/day S3-15 for another 4 weeks.
The weight of rats or mice were recorded every week in the treatment period. After treatment, the rats were harvested, the serum, heart, liver, spleen, lung, kidney, thymus, and femurs were all collected and subjected to subsequent analysis. The right femurs of rats or mice were cleaned excess soft tissue, fixed in 10% formalin, and processed them for microcomputed tomography (micro-CT) analysis. Left mice femurs were collected and excarnate for biomechanical strength testing. Mice peripheral blood were as well as collected for flow cytometry analyzing.
The right femurs of rats or mice were further analyzed with micro-CT on Inveon PET/CT (Siemens, Germany). We used micro-CT to scan the femur from the femoral head to the femoral condyle, using 19 μm resolution, 80 kV 500uA, 360 projection, 3000-6000 image threshold, full rotation cone beam. Three-dimensional reconstruction and histomorphometric analyses of trabecular bone were conducted with the IAW (Inveon analysis workstation) analysis software. The trabecular extended 1 mm (rat) or 0.5 mm (mice) proximally to the end of the distal growth plate over 2 mm (rats) or 1 mm (mice) toward the diaphysis was selected as the region of interest (ROI) for the analysis. The resulting two-dimensional images of trabecular bone in relative cross sections were shown in grayscale. Trabecular bone parameters were measured including bone volume/tissue volume (BV/TV), bone surface area/bone volume (BS/BV), trabecular number (Tb.N), trabecular thickness (Tb.Th), trabecular separation(Tb.Sp) and trabecular pattern factor(Tb.P.F).

RAW264.7 cells = test: In vitro cytotoxicity assay (MTT); format: cell-based, mouse
Procedure, shortened: (§1)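 Log-phase cells were seeded at 6 × 10^3 per well and incubated 24 h, with viability read by MTT. Growth inhibition (%) was calculated from OD relative to vehicle wells. CC50 came from nonlinear regression curve fitting.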

[3] = In vitro cytotoxicity assay (MTT); format: cell-based, mouse; conditions: mouse, RAW264.7 cells
Procedure, shortened: as §1

[4] = OVX + compound, individual animals

Work on `CCOC(=O)c1sc(NC(=O)/C(=N/Nc2ccccc2C(=O)O)C(C)=O)nc1C` [S3, (E)-2-(2-(1-((5-(ethoxycarbonyl)-4-methylthiazol-2-yl)amino)-1,3-dioxobutan-2-ylidene) hydrazinyl) benzoic acid] yielded an IC50 ([1]; Mus musculus, Osteoclast, 120 h, BMMs, M-CSF + 100 ng/mL sRANKL, 5 days, TRAP staining, read-out: OC IC50 (anti-osteoclastogenesis activity)) of 0.096 µM, an inhibition at 0.0843226 µM ([1]; Mus musculus, Osteoclast, conc. 0.0843226 μM, three replicate columns, read-out: inhibition of osteoclastogenesis, dose-response (fig. S2a)) of 55.6% and an inhibition at 0.278265 µM ([1]; Mus musculus, Osteoclast, conc. 0.278265 μM, three replicate columns, read-out: inhibition of osteoclastogenesis, dose-response (fig. S2a)) of 62.8%. The inhibition at 0.918274 µM ([1]; Mus musculus, Osteoclast, conc. 0.918274 μM, three replicate columns, read-out: inhibition of osteoclastogenesis, dose-response (fig. S2a)) was 74.4%, the inhibition at 3.0303 µM ([1]; Mus musculus, Osteoclast, conc. 3.0303 μM, three replicate columns, read-out: inhibition of osteoclastogenesis, dose-response (fig. S2a)) was 82.5% and the inhibition at 10 µM ([1]; Mus musculus, Osteoclast, conc. 10 μM, three replicate columns, read-out: inhibition of osteoclastogenesis, dose-response (fig. S2a)) was 95.5%. For the same compound, the inhibition at 33 µM ([1]; Mus musculus, Osteoclast, conc. 33 μM, three replicate columns, read-out: inhibition of osteoclastogenesis, dose-response (fig. S2a)) was 100%, the “inhibition of osteoclastogenesis, dose-response (fig. S2a)” value (“inhibition of osteoclastogenesis” below) ([1]; conc. 0.0023464 μM, three replicate columns) was 14.7982 and 23.3184 and -0.4484 and the “inhibition of osteoclastogenesis” value ([1]; conc. 0.00774313 μM, three replicate columns) was 4.4843 and 2.691 and 14.7982. The “inhibition of osteoclastogenesis” value ([1]; conc. 0.0255523 μM, three replicate columns) was 42.1525 and 52.4664 and 21.0762, the “inhibition of osteoclastogenesis” value ([1]; conc. 0.0843226 μM, three replicate columns) was 52.4664 and 43.4978 and the “inhibition of osteoclastogenesis” value ([1]; conc. 0.278265 μM, three replicate columns) was 63.2287 and 72.1973. The “inhibition of osteoclastogenesis” value ([1]; conc. 0.918274 μM, three replicate columns) was 71.7489 and 80.2691, the “inhibition of osteoclastogenesis” value ([1]; conc. 3.0303 μM, three replicate columns) was 79.8206 and 91.0314 and the “bone resorption / RANKL-induced resorption pits” value [2] was “suppresses RANKL-induced resorption”. For the same compound, the BV/TV (OVX rats; [4]) was 0.3479 and 0.4471 and 0.777 and 0.287 and 0.2327 and 0.4826 and 0.4913, the Tb.N (OVX rats; [4]) was 0.07107 and 0.08431 and 0.1472 and 0.07083 and 0.06968 and 0.09727 and 0.1011 and the Tb.Sp (OVX rats; [4]) was 0.1332 and 0.1043 (2×) and 0.04227 and 0.1759 and 0.2298 and 0.1047. For the same compound, the Tb.Th (OVX rats; [4]) was 4.895 and 5.303 and 5.277 and 4.053 and 3.339 and 4.961 and 4.861, the “BV/TV of OVX rats” value (OVX rats; oral 10 mg/kg/day, 12 weeks, in words) was “increased” and the “cell viability relative to 0 μM (fig. S5e)” value (RAW264.7 cells; conc. 0.08 μM) was 118.628 and 117.348. The “cell viability relative to 0 μM (fig. S5e)” value (RAW264.7 cells; conc. 0.28 μM) was 120.489 and 117.697, the “cell viability relative to 0 μM (fig. S5e)” value (RAW264.7 cells; conc. 0.92 μM) was 125.722 and 127.234 and the “cell viability relative to 0 μM (fig. S5e)” value (RAW264.7 cells; conc. 3.03 μM) was 128.164 and 131.886. The “cell viability relative to 0 μM (fig. S5e)” value (RAW264.7 cells; conc. 10 μM) was 130.258 and 129.909, the viability at 24 h, 0.08 μM ([3]; conc. 0.08 μM, read-out: cell viability relative to 0 μM (fig. S5e)) was 105% and the viability at 24 h, 0.28 μM ([3]; conc. 0.28 μM, read-out: cell viability relative to 0 μM (fig. S5e)) was 107%. For the same compound, the viability at 24 h, 0.92 μM ([3]; conc. 0.92 μM, read-out: cell viability relative to 0 μM (fig. S5e)) was 111%, the viability at 24 h, 3.03 μM ([3]; conc. 3.03 μM, read-out: cell viability relative to 0 μM (fig. S5e)) was 121% and the viability at 24 h, 10 μM ([3]; conc. 10 μM, read-out: cell viability relative to 0 μM (fig. S5e)) was 120%. For the same compound, the CC50 at 24 h ([3]; RAW264.7, MTT) was 44.6 µM.
